Source: patent US5069909A, “Transdermal administration of buprenorphine” (Cygnus Therapeutic Systems, priority 1990, dated 1991)
Values after ≈ are worked out from the molar mass of the structure shown. Structures can show the parent of a compound that is named as a salt. Where two headings read alike, the source gives them in different places.

What was measured:
[1] = format: in vitro ADME, Human; details: 32° C.; for Jskin: aqueous (deionized water) saturated solution, side-by-side cells; for increase of skin flux upon stripping (fold): stripped vs heat-separated epidermis
Protocol: (§1) Stirring was set at 200 rpm throughout the experiment. […] The samples were assayed by HPLC.
In order to determine the principal diffusional barrier of skin in transporting both base and HCl salt across the membrane, the permeating of drug through heat-separated epidermis was compared with stripped epidermis. Stripping removes most of the stratum corneum. The skin was stripped with Scotch brand cellophane tape to remove stratum corneum twenty times. Permeations of the base and the HCl salt through heat-separated epidermis and stripped epidermis from saturated aqueous solution at 32° C. are shown in Table 7.

[2] = flow-through cells
[3] = Octanol-water partition coefficient
physchem = format: physicochemical; details: for solubility thermodynamic: read-out: Cs
Protocol: Solubility Determination: The solubility of buprenorphine base and HCl salt in various vehicles was obtained by equilibrating a large excess of solute with the vehicle in a water-jacketed glass container. Temperature was maintained at 32° C. by a constant temperature water bath and vigorous mixing with a magnetic stirring bar. Equilibrium time for all the studies was ≥48 hr. An excess of solute was always present in the slurries. Samples were taken, filtered through glass wool-tipped pipets, and an appropriate volume of filtrate was diluted with acetonitrile and assayed by HPLC. The procedure was repeated three times and an average value calculated.

[4] = cited from earlier work
pKa = format: physicochemical
in vitro = in vitro ADME, Human; details: for Jskin: n=3; for Papp: human, P = J/Cs, read-out: P (permeability coefficient) (converted)
Protocol: as §1

For `CO[C@@]12CC[C@@]3(C[C@@H]1[C@](C)(O)C(C)(C)C)[C@H]1Cc4ccc(O)c5c4[C@@]3(CCN1CC1CC1)[C@H]2O5` [Buprenorphine HCl], the “skin flux of HCl salt vs base (in words)” value ([1]; aqueous saturated solution) was “higher than that of the base form”, the Jskin ([1]; epidermis) was 2.1 (2.4, 1.7) μg/cm^2 /h and the Jskin ([1]; stripped epidermis) was 20.5 ± 4.3 μg/cm^2 /h. For the same compound, the “increase of skin flux upon stripping (fold)” value [1] was 10 fold, the “skin flux from saturated solutions, comparison (in words)” value [2] was “relatively higher penetration than the base form” and the logP [3] was 2.63. The “solubility (in words)” value (physchem) was “considerably higher than the free base form's”, the Solubility (physchem; deionized water) was 12000 µg/mL and the solubility (physchem; deionized water, water) was 12000 µg/mL. For the same compound, the solubility (physchem; propylene glycol, organic solvent or mixture) was 22500 µg/mL.

In the case of `CO[C@]12CC[C@@]3(C[C@@H]1[C@](C)(O)C(C)(C)C)[C@H]1Cc4ccc(O)c5c4[C@@]3(CCN1CC1CC1)[C@H]2O5` [Buprenorphine, (5α, 7α (s))-17-(cyclopropylmethyl)-α (1,1-dimethylethyl)-4,5-epoxy18,19-dihydro-3-hydroxy-6-methoxy-α-methyl-6,14-ethenomorphinan-7-methanol], the Jskin ([1]; epidermis) is reported as 0.37 (0.35, 0.39) μg/cm^2 /h, the Jskin ([1]; stripped epidermis) is reported as 2.2 ± 0.3 μg/cm^2 /h and the “increase of skin flux upon stripping (fold)” value [1] is reported as 6 fold. For the same compound, the “CIT (clearance, ClT)” value ([4]; Daily dose […] (i.v., tid)) was 77 ± 5 L/h, the “T1/2 β” value ([4]; Daily dose […] (i.v., tid)) was 3.1 ± 0.6 h and the Vdss ([4]; in vivo, iv) was 188 ± 35 L. For the same compound, the “MEC (analgesics)” value ([4]; in vivo) was 0.5 to 0.7 ng/mL, the pKa (pKa) was 8.4 and the logP [3] was 3.09. The Solubility (physchem; Transcutol, 32° C.) was 88600 µg/mL (≈ 189000 µM), the Solubility (physchem; Water (deionized), 32° C.) was 8 µg/mL (≈ 17.1 µM) and the solubility (physchem; Water (deionized), 32° C., read-out: Solubility) was 8 µg/mL (≈ 17.1 µM). It also gave a solubility thermodynamic (physchem; equilibrium pH 5.0, 32° C.) of 692 µg/mL (≈ 1480 µM), a solubility thermodynamic (physchem; equilibrium pH 6.0, 32° C.) of 82 µg/mL (≈ 175 µM) and a solubility thermodynamic (physchem; equilibrium pH 7.0, 32° C.) of 6 µg/mL (≈ 12.8 µM). It also gave a solubility thermodynamic (physchem; equilibrium pH 7.9, 32° C.) of 0.6 µg/mL (≈ 1.28 µM), a solubility thermodynamic (physchem; equilibrium pH 8.7, 32° C.) of 0.14 µg/mL (≈ 0.299 µM) and a solubility (physchem; organic solvent or mixture, Ethanol (absolute), 32° C., read-out: Solubility) of 58400 µg/mL (≈ 125000 µM). It also gave a solubility (physchem; organic solvent or mixture, Isopropyl myristate, 32° C., read-out: Solubility) of 13300 µg/mL (≈ 28400 µM), a solubility (physchem; organic solvent or mixture, Propylene Glycol, 32° C., read-out: Solubility) of 5100 µg/mL (≈ 10900 µM) and a solubility (physchem; organic solvent or mixture, Propylene glycol-monolaurate, 32° C., read-out: Solubility) of 37900 µg/mL (≈ 81000 µM). The solubility (physchem; organic solvent or mixture, Transcutol, 32° C., read-out: Solubility) was 88600 µg/mL (≈ 189000 µM), the “solubility as a function of pH (in words)” value (physchem; pH 5.0 to 8.7) was “decreases exponentially as the pH increases” and the Jskin (in vitro; equilibrium pH 5.0, 32° C.) was 0.59 ± 0.13 μg/cm^2 /h. For the same compound, the Jskin (in vitro; equilibrium pH 6.0, 32° C.) was 0.48 ± 0.02 μg/cm^2 /h, the Jskin (in vitro; equilibrium pH 7.0, 32° C.) was 0.14 ± 0.01 μg/cm^2 /h and the Jskin (in vitro; equilibrium pH 7.9, 32° C.) was 0.05 ± 0.02 μg/cm^2 /h. It also gave a Jskin (in vitro; equilibrium pH 8.7, 32° C.) of 0.03 ± 0.01 μg/cm^2 /h, a Papp (in vitro; equilibrium pH 5.0, 32° C.) of 0.242 ×10⁻⁶ cm/s and a Papp (in vitro; equilibrium pH 6.0, 32° C.) of 1.64 ×10⁻⁶ cm/s. For the same compound, the Papp (in vitro; equilibrium pH 7.0, 32° C.) was 6.39 ×10⁻⁶ cm/s, the Papp (in vitro; equilibrium pH 7.9, 32° C.) was 23.1 ×10⁻⁶ cm/s and the Papp (in vitro; equilibrium pH 8.7, 32° C.) was 58.3 ×10⁻⁶ cm/s. The “skin flux as a function of pH (in words)” value (in vitro; pH 8.7 to 5) was “increased as the pH was decreased to 5” and the “permeability coefficient as a function of pH (in words)” value (in vitro; pH raised to 8.7) was “increased as the pH was raised to 8.7”.
